Legend:
[1] = molecular target: T1, CysH (Cystobacter sp. Cbv34, UniProt A0A0H4NUD7); assay: intact protein ESI-MS, loading onto T domain; assay type: biochemical; conditions: 1 mM ATP, 10 mM MgCl2, pH 7.5, room temperature; covalent (T domain thioester); 1 mM amino acid, 5 µM protein
T1 construct: full-length A-T module with 38 kDa AMDH domain inserted; E. coli BL21(DE3), pHisSUMOTEV, N-terminal 6xHis tag, TEV protease treated

[2] = molecular target: T2, CysH∆AMDH (Cystobacter sp. Cbv34, UniProt A0A0H4NUD7); assay: intact protein ESI-MS, loading onto T domain; assay type: biochemical; conditions: 1 mM ATP, 10 mM MgCl2, pH 7.5, room temperature; covalent (T domain thioester); 1 mM amino acid, 5 µM protein
T2 construct: E. coli BL21(DE3)
T2 sequence (A0A0H4NUD7 entry or part of it): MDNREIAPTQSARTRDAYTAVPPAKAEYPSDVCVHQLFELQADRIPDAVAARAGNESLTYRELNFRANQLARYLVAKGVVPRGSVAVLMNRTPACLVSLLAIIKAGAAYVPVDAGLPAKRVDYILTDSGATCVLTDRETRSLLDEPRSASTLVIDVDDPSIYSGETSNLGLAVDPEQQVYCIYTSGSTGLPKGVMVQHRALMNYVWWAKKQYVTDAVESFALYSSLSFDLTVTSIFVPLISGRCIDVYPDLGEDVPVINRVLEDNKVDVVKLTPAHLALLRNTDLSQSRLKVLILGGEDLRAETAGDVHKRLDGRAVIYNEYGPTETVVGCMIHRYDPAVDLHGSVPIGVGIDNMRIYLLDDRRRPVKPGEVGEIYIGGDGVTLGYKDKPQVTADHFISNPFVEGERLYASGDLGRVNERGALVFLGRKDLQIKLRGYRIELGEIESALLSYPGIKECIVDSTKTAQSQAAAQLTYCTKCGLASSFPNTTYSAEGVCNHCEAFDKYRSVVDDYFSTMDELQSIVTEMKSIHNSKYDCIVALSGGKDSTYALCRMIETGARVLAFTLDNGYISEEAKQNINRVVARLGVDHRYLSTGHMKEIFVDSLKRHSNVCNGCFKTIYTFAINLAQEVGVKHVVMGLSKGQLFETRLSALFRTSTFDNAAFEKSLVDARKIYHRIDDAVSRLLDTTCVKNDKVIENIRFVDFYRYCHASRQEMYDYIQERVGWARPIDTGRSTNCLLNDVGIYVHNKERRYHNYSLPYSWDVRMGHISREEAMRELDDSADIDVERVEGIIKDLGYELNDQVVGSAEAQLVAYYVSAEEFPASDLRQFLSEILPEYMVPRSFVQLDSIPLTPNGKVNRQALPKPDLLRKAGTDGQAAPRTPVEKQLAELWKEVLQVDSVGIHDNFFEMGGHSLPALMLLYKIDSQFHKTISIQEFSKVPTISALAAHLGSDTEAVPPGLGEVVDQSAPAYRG

T1 sequence (A0A0H4NUD7 entry or part of it): as above

Compound	intact protein ESI-MS, loading onto T domain [1]	intact protein ESI-MS, loading onto T domain [2]
NC(=O)C[C@H](N)C(=O)O [L-asparagine]	L-asparagine was favored as substrate by CysH	Incubation of CysH∆AMDH with L-asparagine only resulted in substrate loading
NC(=O)[C@@H](N)CC(=O)O [L-isoasparagine]	we also observed loading of L-glutamine, β-cyano-L-alanine, and L-isoasparagine	–

Reference: article PMC7966384, “In vivo and in vitro reconstitution of unique key steps in cystobactamid antibiotic biosynthesis” (Nature Communications, 2021)
